{"source": "patent US11008333B2", "about": "“Crystalline forms of hydrochloride salts of thienopyrimidine compound” (HANMI PHARM. CO., LTD., priority 2015, dated 2021)", "key": {"[1]": {"test": "Storage under long-term, accelerated and stress testing conditions", "type": "physicochemical", "details": "for expected stability: expectation from DVS"}, "[2]": {"test": "Dynamic vapor sorption (DVS), water absorption / hygroscopicity", "type": "physicochemical", "method": "Dynamic vapor sorption (DVS) analysis was performed in a DVS advantage (Surface measurement system, United Kingdom) analyzer at 25° C. with a relative humidity of 0% to 90%. A sample in an amount of 10 mg was placed into a wire-mesh vapor sorption balance pan and then attached to a DVS advantage dynamic vapor sorption balance via surface measurement systems. Until a stable weight was achieved (99.5% completion of steps), the sample was applied to a ramping profile with a relative humidity of 10% to 90% with a 10% increase of the sample while maintaining the sample in each step. Upon completion of the sorption cycle, the sample was dried using the same process while maintaining a relative humidity of […]. The changes in the sample weight during the adsorption/desorption cycle (repeated 3 times) were recorded and the hygroscopicity of the sample was measured."}, "[3]": {"test": "Measurement of water solubility (HPLC)", "type": "physicochemical", "details": "for pH of solution: solution of the water solubility test, 100 mg/mL in water", "method": "Specifically, each sample of the polymorphs in an amount of 500 mg was added to 5 mL of water, blended at […] to 25° C. using a Voltamixer, and filtered with a GH Polypro membrane Acrodisc, PALL (pore size: 0.2 μm). The filtrate was diluted with a diluent used for HPLC in a 1:100 ratio to obtain the samples."}, "[4]": {"tested_on": "mutant epidermal growth factor receptor tyrosine kinase", "details": "disclosed in WO 2011/162515; cited from earlier work"}, "[5]": {"tested_on": "cancer cells induced by a mutation in epidermal growth factor receptor (EGFR) tyrosine kinase", "details": "disclosed in WO 2011/162515; cited from earlier work"}, "[6]": {"details": "accelerated condition (40° C., relative humidity 75%)"}, "[7]": {"details": "long-term storage condition (25° C., relative humidity 60%)"}, "[8]": {"details": "relative humidity of 10% to 90%, 25° C."}, "[9]": {"details": "non-ionic water, 500 mg in 5 mL (conc. of solution 100 mg/mL), 2θ° C. to 25° C., amount dissolved based on compound of Formula 1, HPLC"}, "[10]": {"details": "relative humidity of 40% or higher"}, "[11]": {"details": "relative humidity of 10% to 70%"}, "[12]": {"details": "relative humidity of 70% or higher"}}, "note": "Like-named read-outs stand apart in the source and are kept apart here.", "data": [{"smiles": "C=CC(=O)Nc1cccc(Oc2nc(Nc3ccc(N4CCN(C)CC4)cc3)nc3ccsc23)c1", "note": "[Comparative Example 1, N-(3-(2-(4-(4-methylpiperazin-1-yl)phenylamino)thieno[3,2-d]pyrimidin-4-yloxy)phenyl)acrylamide]", "values": [{"measurement": "expected stability", "setting": "[1]; [6]", "value": "unstable"}, {"measurement": "expected stability", "setting": "[1]; [7]", "value": "unstable"}, {"measurement": "level of water absorption (hygroscopicity) in DVS", "setting": "[2]; [8]", "value": "very high level"}]}, {"smiles": "C=CC(=O)Nc1cccc(Oc2nc(Nc3ccc(N4CCN(C)CC4)cc3)nc3ccsc23)c1", "note": "[Example 1, N-(3-(2-(4-(4-methylpiperazin-1-yl)phenylamino)thieno[3,2-d]pyrimidin-4-yloxy)phenyl)acrylamide]", "values": [{"measurement": "stability", "setting": "[1]; [6]", "value": "fully stable"}, {"measurement": "stability", "setting": "[1]; [7]", "value": "fully stable"}, {"measurement": "stability", "setting": "[1]; stress testing condition (60° C.)", "value": "fully stable"}, {"measurement": "reversible water sorption and desorption in DVS", "setting": "[2]; complete range of 0-90% RH", "value": "about 3%"}, {"measurement": "level of water absorption (hygroscopicity) in DVS", "setting": "[2]; [8]", "value": "2-3%"}, {"measurement": "level of water absorption (hygroscopicity) in DVS", "setting": "[2]; relative humidity of 10% to 90%, 25° C., listed as ex. 1", "value": "very low level of change"}, {"measurement": "water solubility compared with the other forms", "setting": "[3]; comparison of Table 16", "value": "highest water solubility"}, {"measurement": "Solubility", "setting": "[3]; [9]", "value": 50390, "unit": "µg/mL"}, {"measurement": "pH of solution", "setting": "[3]", "value": 1.7}]}, {"smiles": "C=CC(=O)Nc1cccc(Oc2nc(Nc3ccc(N4CCN(C)CC4)cc3)nc3ccsc23)c1", "note": "[Example 3, N-(3-(2-(4-(4-methylpiperazin-1-yl)phenylamino)thieno[3,2-d]pyrimidin-4-yloxy)phenyl)acrylamide]", "values": [{"measurement": "level of water absorption (hygroscopicity) in DVS", "setting": "[2]; relative humidity of 10% to 40%", "value": "very low level"}, {"measurement": "level of water absorption (hygroscopicity) in DVS", "setting": "[2]; [10]", "value": "about 9%"}, {"measurement": "level of water absorption (hygroscopicity) in DVS", "setting": "[2]; relative humidity of 40% or higher, listed as ex. 3", "value": "about 9%"}, {"measurement": "Solubility", "setting": "[3]; [9]", "value": 7760, "unit": "µg/mL"}, {"measurement": "pH of solution", "setting": "[3]", "value": 2.1}]}, {"smiles": "C=CC(=O)Nc1cccc(Oc2nc(Nc3ccc(N4CCN(C)CC4)cc3)nc3ccsc23)c1", "note": "[Example 4, N-(3-(2-(4-(4-methylpiperazin-1-yl)phenylamino)thieno[3,2-d]pyrimidin-4-yloxy)phenyl)acrylamide]", "values": [{"measurement": "level of water absorption (hygroscopicity) in DVS", "setting": "[2]; relative humidity of 10% to 30%", "value": "very high"}, {"measurement": "level of water absorption (hygroscopicity) in DVS", "setting": "[2]; relative humidity of 10% to 30%, listed as ex. 4", "value": "about 6%"}, {"measurement": "level of water absorption (hygroscopicity) in DVS", "setting": "[2]; [10]", "value": "very weak"}, {"measurement": "level of water absorption (hygroscopicity) in DVS", "setting": "[2]; relative humidity of 40% or higher, listed as ex. 4", "value": "very low and constant level"}, {"measurement": "Solubility", "setting": "[3]; [9]", "value": 10660, "unit": "µg/mL"}, {"measurement": "pH of solution", "setting": "[3]", "value": 1.7}]}, {"smiles": "C=CC(=O)Nc1cccc(Oc2nc(Nc3ccc(N4CCN(C)CC4)cc3)nc3ccsc23)c1", "note": "[Example 5, N-(3-(2-(4-(4-methylpiperazin-1-yl)phenylamino)thieno[3,2-d]pyrimidin-4-yloxy)phenyl)acrylamide]", "values": [{"measurement": "level of water absorption (hygroscopicity) in DVS", "setting": "[2]; [11]", "value": "very low"}, {"measurement": "level of water absorption (hygroscopicity) in DVS", "setting": "[2]; relative humidity of 10% to 70%, listed as ex. 5", "value": "very low level"}, {"measurement": "level of water absorption (hygroscopicity) in DVS", "setting": "[2]; [12]", "value": "about 7%"}, {"measurement": "level of water absorption (hygroscopicity) in DVS", "setting": "[2]; relative humidity of 70% or higher, listed as ex. 5", "value": "about 7%"}, {"measurement": "Solubility", "setting": "[3]; [9]", "value": 420, "unit": "µg/mL"}, {"measurement": "pH of solution", "setting": "[3]", "value": 4.7}]}, {"smiles": "C=CC(=O)Nc1cccc(Oc2nc(Nc3ccc(N4CCN(C)CC4)cc3)nc3ccsc23)c1", "note": "[Example 6, N-(3-(2-(4-(4-methylpiperazin-1-yl)phenylamino)thieno[3,2-d]pyrimidin-4-yloxy)phenyl)acrylamide]", "values": [{"measurement": "level of water absorption (hygroscopicity) in DVS", "setting": "[2]; [8]", "value": "about 2%"}, {"measurement": "level of water absorption (hygroscopicity) in DVS", "setting": "[2]; relative humidity of 10% to 90%, 25° C., listed as ex. 6", "value": "about 2%"}, {"measurement": "Solubility", "setting": "[3]; [9]", "value": 570, "unit": "µg/mL"}, {"measurement": "pH of solution", "setting": "[3]", "value": 4.9}]}, {"smiles": "C=CC(=O)Nc1cccc(Oc2nc(Nc3ccc(N4CCN(C)CC4)cc3)nc3ccsc23)c1", "note": "[Example 7, N-(3-(2-(4-(4-methylpiperazin-1-yl)phenylamino)thieno[3,2-d]pyrimidin-4-yloxy)phenyl)acrylamide]", "values": [{"measurement": "level of water absorption (hygroscopicity) in DVS", "setting": "[2]; [11]", "value": "very low"}, {"measurement": "level of water absorption (hygroscopicity) in DVS", "setting": "[2]; relative humidity of 10% to 90%, 25° C., listed as ex. 7", "value": "about 14%"}, {"measurement": "level of water absorption (hygroscopicity) in DVS", "setting": "[2]; [12]", "value": "about 14%"}]}, {"smiles": "C=CC(=O)Nc1cccc(Oc2nc(Nc3ccc(N4CCN(C)CC4)cc3)nc3ccsc23)c1", "note": "[Formula 1 (amorphous free base), N-(3-(2-(4-(4-methylpiperazin-1-yl)phenylamino)thieno[3,2-d]pyrimidin-4-yloxy)phenyl)acrylamide]", "values": [{"measurement": "inhibitory activity for mutant EGFR tyrosine kinase", "setting": "[4]", "value": "selective inhibitory activity"}, {"measurement": "Solubility", "setting": "[3]; [9]", "value": 0.1, "unit": "µg/mL"}, {"measurement": "pH of solution", "setting": "[3]", "value": 7.3}, {"measurement": "Solubility", "setting": "[3]; water, 20 °C, water, thermodynamic from solid, amorphous free base, read-out: water solubility", "value": "< 0.1", "unit": "µg/mL"}, {"measurement": "inhibitory activity against growth of cancer cells induced by EGFR mutation, and drug resistance thereof", "setting": "[5]", "value": "selective and effective inhibitory activity"}]}]}
